US20030044399A1, “Method of treatment” (SmithKline Beecham Corporation, priority 1998, published 2003)
Like-named read-outs stand apart in the source and are kept apart here.

Assays:
[1] = biological target: Rhodazain (Trypanosoma brucei rhodesiense, UniProt Q95PM0); experiment: Cysteine protease inhibition, progress curve method, rhodazain; format: biochemical, Trypanosoma brucei rhodesiensi; conditions: Rhodazain Ki (nM), 10 uM Cbz-Leu-Arg-AMC, 100 mM Na acetate pH 5.5, 5 mM cysteine
[2] = biological target: T1, Leishmania B (UniProt P90627); experiment: Cysteine protease inhibition, progress curve method, leishmania B; format: biochemical, Leishmania spp; conditions: read-out: Leishmania B Ki nM; 10 uM Cbz-Phe-Arg-AMC, 100 mM Na acetate pH 5.5, 5 mM cysteine
T1 sequence (P90627 1-340): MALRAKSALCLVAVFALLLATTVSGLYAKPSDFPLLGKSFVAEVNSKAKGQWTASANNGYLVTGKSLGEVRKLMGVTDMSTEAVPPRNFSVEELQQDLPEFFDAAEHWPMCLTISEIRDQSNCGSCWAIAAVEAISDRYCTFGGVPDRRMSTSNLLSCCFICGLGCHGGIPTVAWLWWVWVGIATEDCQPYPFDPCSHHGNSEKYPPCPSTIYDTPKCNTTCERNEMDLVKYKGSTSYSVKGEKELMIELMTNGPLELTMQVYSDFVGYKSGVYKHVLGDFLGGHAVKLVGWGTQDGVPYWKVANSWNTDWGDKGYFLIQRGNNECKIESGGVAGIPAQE
Description: (§1) Standard assay conditions for the determination of kinetic constants used 10 uM fluorogenic peptide substrate, Cbz-Phe-Arg-AMC for the cysteine proteases from Leishmania spp and Schistosoma Mansoni, Cbz-Leu-Arg-AMC for the cysteine proteases from Plasmodium falciparum and Trypanosoma brucei rhodesiensi, and Ac-Lys-Glu-Lys-Leu-Arg-AMC (4 uM final substrate concentration) for the cysteine protease from Trypoanosoma cruzi, and were determined in 100 mM Na acetate at pH 5.5 containing 5 mM cysteine. Stock substrate solutions were prepared at concentrations of […] in DMSO with 10 uM (4 uM for Ac-Lys-Glu-Lys-Leu-Arg-AMC) final substrate concentration in the assays. The final DMSO concentration was 2% and the final volume was 100 uL. All assays were conducted at ambient temperature. Product progress curves were generated over 20 to 30 minutes following formation of AMC product.
(§2) Potential inhibitors were evaluated using the progress curve method. Assays were carried out in the presence of variable concentrations of test compound. Reactions were initiated by addition of enzyme to buffered solutions of inhibitor and substrate. Data analysis was conducted according to one of two procedures depending on the appearance of the progress curves in the presence of inhibitors. For those compounds whose progress curves were linear, apparent inhibition constants (Ki,app) were calculated according to equation 1 (Brandt et al., Biochemitsry, 1989, 28, 140):
(§3) v=VmA/[Ka(1+I/Ki,app)+A] (1)
(§4) Where v is the velocity of the reaction with maximal velocity Vm, A is the concentration of substrate with Michaelis constant of Ka, and I is the concentration of inhibitor.
(§5) [AMC]=vsst+(v0−vss)[1−exp (−kobst)]/kobs (2)
(§6) Where [AMC] is the concentration of product formed over time t, v0 is the initial reaction velocity and vss is the final steady state rate. Values for kobs were then analyzed as a linear function of inhibitor concentration to generate an apparent second order rate constant (kobs/inhibitor concentration or kobs/[I]) describing the time-dependent inhibition. A complete discussion of this kinetic treatment has been fully described (Morrison et al., Adv. Enzymol. Relat. Areas Mol. Biol., 1988, 61, 201).
(§7) Exemplary inhibition data for the compounds used in the present method collected in accordance with the above-described procedure are listed in Table I.

[3] = biological target: Schisto B 2 (Schistosoma mansoni, UniProt Q95PM1); experiment: Cysteine protease inhibition, progress curve method, schistosoma B 2; format: biochemical; conditions: 10 uM Cbz-Phe-Arg-AMC, 100 mM Na acetate pH 5.5, 5 mM cysteine
Schisto B 2, sequence (Q95PM1 entry or part of it): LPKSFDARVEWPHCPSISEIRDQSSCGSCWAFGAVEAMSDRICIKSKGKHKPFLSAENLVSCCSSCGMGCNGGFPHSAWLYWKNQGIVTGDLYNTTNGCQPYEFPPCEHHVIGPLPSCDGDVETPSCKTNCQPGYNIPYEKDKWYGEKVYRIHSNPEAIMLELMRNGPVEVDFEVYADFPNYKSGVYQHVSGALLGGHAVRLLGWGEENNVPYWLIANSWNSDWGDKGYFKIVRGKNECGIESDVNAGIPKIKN
Description: as §1, §2, §3, §4, §5, §6, §7

[4] = biological target: Schisto B 1 (Schistosoma mansoni, UniProt P25792); experiment: Cysteine protease inhibition, progress curve method, schistosoma B 1; format: biochemical
Schisto B 1, sequence (P25792 89-340): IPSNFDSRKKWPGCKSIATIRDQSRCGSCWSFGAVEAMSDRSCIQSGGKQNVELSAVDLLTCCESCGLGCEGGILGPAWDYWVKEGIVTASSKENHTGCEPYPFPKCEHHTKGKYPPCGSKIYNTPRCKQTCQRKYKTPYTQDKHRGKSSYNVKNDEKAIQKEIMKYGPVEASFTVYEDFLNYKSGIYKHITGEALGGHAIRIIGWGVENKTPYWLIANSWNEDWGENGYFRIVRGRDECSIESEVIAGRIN
Description: as §1, §2, §3, §4, §5, §6, §7

[5] = biological target: Cruzain (Trypanosoma cruzi, UniProt P25779); experiment: Cysteine protease inhibition, progress curve method, cruzain; format: biochemical; conditions: 4 uM Ac-Lys-Glu-Lys-Leu-Arg-AMC, 100 mM Na acetate pH 5.5, 5 mM cysteine; read-out: Cruzain Ki
Cruzain, sequence (P25779 123-337): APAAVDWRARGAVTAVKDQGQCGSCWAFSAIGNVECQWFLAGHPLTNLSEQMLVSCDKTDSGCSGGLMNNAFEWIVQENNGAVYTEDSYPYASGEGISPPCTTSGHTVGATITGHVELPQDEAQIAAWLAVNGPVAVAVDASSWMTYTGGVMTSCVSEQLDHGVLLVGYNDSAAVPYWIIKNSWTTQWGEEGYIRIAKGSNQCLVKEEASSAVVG
Procedure, shortened: (§8)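 Kinetic constants from AMC-release progress curves over 20–30 min at ambient temperature in 100 mM Na acetate pH 5.5, 5 mM cysteine, 2% DMSO; enzyme added last to inhibitor plus substrate. Substrates: 10 uM Cbz-Phe-Arg-AMC (Leishmania, Schistosoma), 10 uM Cbz-Leu-Arg-AMC (falcipain), 4 uM Ac-Lys-Glu-Lys-Leu-Arg-AMC (cruzain). Ki,app from linear curves; time-dependent inhibition as kobs/[I].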

[6] = biological target: Falcipain 2 (Plasmodium falciparum, UniProt Q8I6U4); experiment: Cysteine protease inhibition, progress curve method, falcipain; format: biochemical; conditions: 10 uM Cbz-Leu-Arg-AMC, 100 mM Na acetate pH 5.5, 5 mM cysteine
Falcipain 2, sequence (Q8I6U4 244-484): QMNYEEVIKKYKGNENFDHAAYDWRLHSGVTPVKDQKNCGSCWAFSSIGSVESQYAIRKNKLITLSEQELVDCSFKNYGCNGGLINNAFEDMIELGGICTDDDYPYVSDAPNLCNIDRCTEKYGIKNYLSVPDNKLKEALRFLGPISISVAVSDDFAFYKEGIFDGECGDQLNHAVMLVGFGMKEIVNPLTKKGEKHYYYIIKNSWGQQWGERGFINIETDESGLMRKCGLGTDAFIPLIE
Procedure, shortened: as §8

[7] = 10 uM Cbz-Phe-Arg-AMC, 100 mM Na acetate pH 5.5, 5 mM cysteine, read-out: Schisto B 1 Ki

Rhodazain, sequence (Q95PM0 entry or part of it): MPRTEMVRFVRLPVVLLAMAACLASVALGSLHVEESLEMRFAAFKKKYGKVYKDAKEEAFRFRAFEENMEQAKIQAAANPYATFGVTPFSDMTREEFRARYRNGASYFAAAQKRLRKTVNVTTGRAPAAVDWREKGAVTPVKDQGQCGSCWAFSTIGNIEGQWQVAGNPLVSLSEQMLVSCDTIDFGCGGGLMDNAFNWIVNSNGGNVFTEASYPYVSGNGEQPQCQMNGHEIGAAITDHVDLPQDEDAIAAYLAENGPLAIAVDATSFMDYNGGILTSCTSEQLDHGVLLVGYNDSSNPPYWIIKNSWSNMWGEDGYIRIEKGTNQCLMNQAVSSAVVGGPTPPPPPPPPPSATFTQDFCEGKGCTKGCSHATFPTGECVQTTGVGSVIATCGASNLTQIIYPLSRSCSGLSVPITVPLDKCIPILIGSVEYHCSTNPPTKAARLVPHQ

Row | Ki [3] | Ki [4, 7] | Compound | Ki [1] | Ki [2] | Ki [5] | Ki [4] | Ki [6]
1 | – | – | O=C(N[C@@H](Cc1ccccc1)C(=O)NC1CCCN(S(=O)(=O)c2ccccn2)CC1=O)c1cccc2cccnc12 (single isomer, unassigned) [Example 189] | 3.1 nM | 3.9 nM | – | – | –
2 | 0.17 µM | 0.041 µM | COc1cccc(S(=O)(=O)N2CCC[C@H](NC(=O)[C@H](CC(C)C)NC(=O)c3cc4ccccc4o3)C(=O)C2)c1 [Example 136, Benzofuran-2-carboxylic acid-{(S)-1-[1-(3-methoxy-benzenesulfonyl)-3-oxo-azepan-4-ylcarbamoyl]-3-methyl-butyl}-amide] | – | – | 0.012 µM | – | –
3 | – | – | Cc1c(C(=O)N[C@@H](CC(C)C)C(=O)NC2CCCN(Cc3ccc4ccccc4n3)CC2=O)oc2ccccc12 (stereo partly drawn) [Example 213, 3-Methyl-benzofuran-2-carboxylic acid [(S)-3-methyl-1-[3-oxo-1-quinolin-2-ylmethyl-azepan-4-ylcarbamoyl]-butyl}-amide] | – | 0.77 nM | 0.0071 µM | – | –
4 | 0.38 µM | 0.067 µM | COc1cccc(S(=O)(=O)N2CCC[C@H](NC(=O)[C@H](CC(C)C)NC(=O)c3cc4cc(OC)ccc4o3)C(=O)C2)c1 [Example 137, 5-Methoxy-benzofuran-2-carboxylic acid-{(S)-1-[1-(3-methoxy-benzenesulfonyl)-3-oxo-azepan-4-ylcarbamoyl]-3-methyl-butyl}-amide] | – | – | 0.019 µM | – | –
5 | – | – | O=C(N[C@@H](Cc1ccc2ccccc2c1)C(=O)NC1CCCN(S(=O)(=O)c2ccccn2)CC1=O)c1cc2ccccc2o1 (stereo partly drawn) [Example 159, Benzofuran-2-carboxylic acid {(S)-2-naphthalen-2-yl-1-[3-oxo-1-(pyridine-2-sulfonyl)-azepan-4-ylcarbamoyl)-ethyl]-amide] | 3.4 nM | 1.4 nM | – | 0.047 µM | –
6 | 0.33 µM | 0.045 µM | CC(C)C[C@@H](NC(=O)c1ccc2c(c1)OCO2)C(=O)N[C@@H]1CCCN(S(=O)(=O)c2ccc(F)cc2)CC1=O (stereo in doubt) [Example 67, Benzo[1,3]dioxole-5-carboxylic acid {(S)-1-[1-(4-fluoro-benzenesulfonyl)-3-oxo-azepan-4-ylcarbamoyl]-3methyl-butyl}-amide] | – | – | 0.011 µM | – | –
7 | 0.26 µM | 0.044 µM | CC(C)C[C@H](NC(=O)c1cnc2ccccc2n1)C(=O)N[C@H]1CCCN(S(=O)(=O)c2ccc(F)cc2)CC1=O [Example 86] | – | – | 0.023 µM | – | –
8 | 0.14 µM | 0.077 µM | CC(C)C[C@H](NC(=O)c1cc2ccccc2o1)C(=O)N[C@H]1CCCN(S(=O)(=O)c2cccc(Cl)c2)CC1=O [Example 88, Benzofuran-2-carboxylic acid-{(S)-1-[1-(3-chloro-benzenesulfonyl)-3-oxo-azepan-4ylcarbamoyl]-3-methyl-butyl}-amide] | – | – | – | – | –
9 | 0.23 µM | 0.061 µM | CC(C)C[C@H](NC(=O)c1ccc2ccccc2n1)C(=O)N[C@H]1CCCN(S(=O)(=O)c2ccc(F)cc2)CC1=O [Example 83] | – | – | – | – | –
10 | – | – | CC(C)C[C@H](NC(=O)c1cc2ccccc2s1)C(=O)NC1CCCN(Cc2ccc3ccccc3n2)CC1=O (stereo partly drawn) [Example 214, Benzo[b]thiophene-2-carboxylic acid {(S)-3-methyl-1-[3-oxo-1-quinolin-2-ylmethyl-azepan-4-ylcarbamoyl]-butyl}-amide] | – | 1 nM | 0.0074 µM | – | –
11 | 0.23 µM | 0.064 µM | COc1cccc(S(=O)(=O)N2CCC[C@H](NC(=O)[C@H](CC(C)C)NC(=O)c3oc4ccccc4c3C)C(=O)C2)c1 [Example 139, 3-Methyl-benzofuran-2-carboxylic acid-{(S)-1-[1-(3-methoxy-benzenesulfonyl)-3-oxo-azepan-4-ylcarbamoyl]-3-methyl-butyl}-amide] | – | – | – | – | –
12 | – | – | CC(C)C[C@H](NC(=O)c1cc2ccccc2o1)C(=O)NC1CCCN(Cc2ccc3ccccc3n2)CC1=O (stereo partly drawn) [Example 212, Benzofuran-2-carboxylic acid [(S)-3-methyl-1-[3-oxo-1-quinolin-2-ylmethyl-azepan-4-ylcarbamoyl]-butyl}-amide] | – | 1.7 nM | 0.0077 µM | – | –
13 | 0.28 µM | 0.038 µM | COc1ccc(C(=O)N[C@@H](CC(C)C)C(=O)N[C@@H]2CCCN(S(=O)(=O)c3ccc(F)cc3)CC2=O)cc1OC [Example 110, N—{(S)-1-[1-(4-Fluoro-benzenesulfonyl)-3-oxo-azepan-4-ylcarbamoyl}-3-methyl-butyl}-3,4-dimethoxy-benzamide] | – | – | 0.0074 µM | – | 0.096 µM

Row | Compound | Ki [3] | Ki [4, 7] | Ki [1] | Ki [2] | Ki [5] | Ki [4] | Ki [6]
14 | COc1ccc2oc(C(=O)N[C@@H](CC(C)C)C(=O)N[C@H]3CCCN(S(=O)(=O)c4cccs4)CC3=O)cc2c1 [Example 143, 5-Methoxy-benzofuran-2-carboxylic acid-{(S)-3-methyl-1-[3-oxo-1-(thiophene-2-sulfonyl)-azepan-4-ylcarbamoyl]-butyl}-amide] | 0.11 µM | 0.055 µM | 6.5 nM | – | 0.0057 µM | – | –
15 | CC(C)CC(NC(=O)c1cc2ccccc2s1)C(=O)NC1CCCN(S(=O)(=O)c2ccccn2)CC1=O (stereo in doubt) [Example 87, Benzo[b]thiophene-2-carboxylic acid {(S)-3-methyl-1-[3-oxo-1-(pyridine-2-sulfonyl)-azepan-4-ylcarbamoyl]-butyl}amide] | 0.26 µM | 0.044 µM | 1.9 nM | – | 0.003 µM | – | 0.042 µM
16 | Cc1occc1S(=O)(=O)N1CCC[C@H](NC(=O)[C@H](CC(C)C)NC(=O)c2cc3ccccc3o2)C(=O)C1 [Example 179] | 0.11 µM | 0.011 µM | 5.1 nM | – | 0.0022 µM | – | –
17 | O=C(NC(Cc1ccc2ccccc2c1)C(=O)NC1CCCN(S(=O)(=O)c2ccccn2)CC1=O)c1cccc2cccnc12 [Example 187, Quinoline-8-carboxylic acid {(S)-2-naphthalen-2-yl-1-[3-oxo-1-(pyridine-2-sulfonyl)-azepan-4-ylcarbamoyl]-ethyl}-amide] | – | 0.0084 µM | 2.5 nM | 2.1 nM | 0.0068 µM | – | –
18 | O=C(N[C@@H](Cc1ccccc1)C(=O)NC1CCCN(S(=O)(=O)c2ccccn2)CC1=O)c1cc2ccccc2o1 (stereo partly drawn) [Example 104, Benzofuran-2-carboxylic acid {(S)-1-[3-oxo-1-(pyridine-2-sulfonyl)-azepan-4-ylcarbamoyl]-2-phenyl-ethyl}-amide] | 0.27 µM | 0.076 µM | 3.2 nM | – | 0.013 µM | – | –
19 | COc1cc2cc(C(=O)N[C@H](CC3CCCCC3)C(=O)NC3CCCN(S(=O)(=O)c4cccc[n+]4[O-])CC3=O)oc2cc1OC (stereo partly drawn) [Example 170, 5,6-Dimethoxy-benzofuran-2-carboxylic acid {(S)-2-cyclohexyl-1-[3-oxo-1-(1-oxy-pyridine-2-sulfonyl)-azepan-4-ylcarbamoyl]-ethyl}-amide] | 0.082 µM | 0.049 µM | 4.7 nM | – | – | – | –
20 | O=C(NC(Cc1ccccc1)C(=O)N[C@@H]1CCCN(S(=O)(=O)c2ccccn2)CC1=O)c1cccc2ccccc12 (single isomer, unassigned) [Example 190] | 0.068 µM | 0.038 µM | 2.5 nM | – | 0.0084 µM | – | –
